Measurements as given in the NIST ThermoML archive (doi:10.1016/j.jct.2010.10.018).

Test: xn = mol fraction of the nth substance listed
Settings: 101 kPa, Liquid, Vibrating tube method

CC(C)(C)O [2-methylpropan-2-ol] + O
mass density [kg/m3]
Settings	323.15 K	333.15 K	348.15 K
x1 = 0.00089	–	982.51	974.22
x1 = 0.00146	–	982.1	973.75
x1 = 0.00269	–	981.23	973.04
x1 = 0.00403	–	980.3	972.25
x1 = 0.00513	–	979.52	971.5
x1 = 0.00761	–	977.87	969.81
x1 = 0.01405	–	973.36	965
x1 = 0.0248	–	965.88	957.02
x1 = 0.03494	–	959.46	949.37
x1 = 0.04241	–	954.72	944.24
x1 = 0.05218	–	947.17	936.2
x1 = 0.05887	–	942.74	931.84
x1 = 0.06973	–	935.49	924.4
x1 = 0.1125	–	908.96	896.84
x1 = 0.1566	–	885.44	872.83
x1 = 0.208	–	864.42	850.42
x1 = 0.2408	–	852.37	838.25
x1 = 0.3023	–	834.38	820.05
x1 = 0.3451	–	823.51	808.66
x1 = 0.4045	–	810.41	795.17
x1 = 0.4225	–	807.23	792.36
x1 = 0.4653	–	799.78	784.18
x1 = 0.5344	798.37	788.31	772.8
x1 = 0.6029	789.18	778.96	763.18
x1 = 0.6909	779.13	768.71	752.22
x1 = 0.726	775.51	765.01	748.55
x1 = 0.7999	769.18	758.52	741.72
x1 = 0.8711	763	752.17	734.96
x1 = 0.9183	759.52	748.6	731.4
x1 = 0.9574	756.76	745.7	728.29
x1 = 0.9652	756.21	745.12	727.67
x1 = 0.9795	755.31	744.15	726.63
x1 = 0.9821	755.09	743.92	726.41
x1 = 0.9944	754.31	743.11	725.51
x1 = 0.996	754.22	743.02	725.4
x1 = 1	753.94	742.7	725.05
